Publication PMC11116522, “Illuminating the function of the orphan transporter, SLC22A10, in humans and other primates” (Nature Communications, 2024)
Structures can show the parent of a compound that is named as a salt.

Legend:
gibbon SLC22A10 (533 aa) = target: T1, gibbon SLC22A10 (533 aa) (Nomascus leucogenys, UniProt G1QWU8); test: radiolabelled uptake in HEK293 Flp-In cells; format: cell-based; conditions: labelled compound; HBSS
T1 construct: gene LOC100590002; full length 533 aa isoform, synthetic cDNA, HEK293 Flp-In cells

[1] = target: T2, orangutan SLC22A10 (533 aa) (Pongo abelii, UniProt A0A8I5UWR8); test: radiolabelled uptake in HEK293 Flp-In cells; format: cell-based; conditions: labelled compound; HBSS
T2 construct: full length 533 aa isoform, synthetic cDNA, HEK293 Flp-In cells
T2 sequence (A0A8I5UWR8 1-533): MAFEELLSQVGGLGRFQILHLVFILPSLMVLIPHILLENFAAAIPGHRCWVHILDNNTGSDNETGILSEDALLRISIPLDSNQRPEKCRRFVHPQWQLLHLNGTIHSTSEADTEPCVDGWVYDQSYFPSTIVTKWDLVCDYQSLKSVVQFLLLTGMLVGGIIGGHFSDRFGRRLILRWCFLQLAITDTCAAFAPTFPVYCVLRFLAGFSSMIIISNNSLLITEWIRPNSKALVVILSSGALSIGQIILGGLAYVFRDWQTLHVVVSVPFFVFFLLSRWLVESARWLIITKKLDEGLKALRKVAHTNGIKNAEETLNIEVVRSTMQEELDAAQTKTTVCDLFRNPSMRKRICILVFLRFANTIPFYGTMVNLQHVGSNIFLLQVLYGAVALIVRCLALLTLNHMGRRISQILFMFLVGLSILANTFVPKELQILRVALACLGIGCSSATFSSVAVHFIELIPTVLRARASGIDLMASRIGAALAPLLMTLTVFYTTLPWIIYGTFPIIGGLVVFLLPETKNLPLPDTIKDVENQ

[2] = target: T3, squirrel monkey SLC22A10 (552 aa) (Saimiri boliviensis, UniProt A0A2K6SBP5); test: radiolabelled uptake in HEK293 Flp-In cells; format: cell-based; conditions: labelled compound; HBSS
T3 construct: full length 552 aa, synthetic cDNA, HEK293 Flp-In cells
T3 sequence (A0A2K6SBP5 1-552): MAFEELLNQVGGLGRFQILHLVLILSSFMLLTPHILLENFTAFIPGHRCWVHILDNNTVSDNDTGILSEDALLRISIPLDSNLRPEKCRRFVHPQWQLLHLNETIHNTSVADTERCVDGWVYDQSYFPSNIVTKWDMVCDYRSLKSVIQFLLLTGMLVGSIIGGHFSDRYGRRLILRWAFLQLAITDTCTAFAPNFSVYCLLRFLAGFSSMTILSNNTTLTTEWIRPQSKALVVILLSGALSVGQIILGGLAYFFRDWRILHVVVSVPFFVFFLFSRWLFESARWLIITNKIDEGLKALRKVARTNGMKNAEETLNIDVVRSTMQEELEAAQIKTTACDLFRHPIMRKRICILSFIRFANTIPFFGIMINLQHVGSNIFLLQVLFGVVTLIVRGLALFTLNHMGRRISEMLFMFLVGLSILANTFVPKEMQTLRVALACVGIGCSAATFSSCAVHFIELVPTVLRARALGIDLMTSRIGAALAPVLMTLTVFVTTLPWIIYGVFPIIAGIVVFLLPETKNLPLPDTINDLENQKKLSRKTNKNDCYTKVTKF

[3] = target: T4, gorilla SLC22A10 (552 aa) (Gorilla gorilla, UniProt G3RG24); test: radiolabelled uptake in HEK293 Flp-In cells; format: cell-based; conditions: labelled compound; HBSS
T4 construct: full length 552 aa, synthetic cDNA, HEK293 Flp-In cells

[4] = target: T5, chimpanzee SLC22A10 (533 aa) (Pan troglodytes, UniProt A0A2I3TWY5); test: radiolabelled uptake in stable HEK293 Flp-In cells, Michaelis-Menten fit; format: cell-based; conditions: 37 °C, 5 min uptake, HBSS; empty-vector uptake subtracted; labelled compound
T5 sequence (A0A2I3TWY5 1-540): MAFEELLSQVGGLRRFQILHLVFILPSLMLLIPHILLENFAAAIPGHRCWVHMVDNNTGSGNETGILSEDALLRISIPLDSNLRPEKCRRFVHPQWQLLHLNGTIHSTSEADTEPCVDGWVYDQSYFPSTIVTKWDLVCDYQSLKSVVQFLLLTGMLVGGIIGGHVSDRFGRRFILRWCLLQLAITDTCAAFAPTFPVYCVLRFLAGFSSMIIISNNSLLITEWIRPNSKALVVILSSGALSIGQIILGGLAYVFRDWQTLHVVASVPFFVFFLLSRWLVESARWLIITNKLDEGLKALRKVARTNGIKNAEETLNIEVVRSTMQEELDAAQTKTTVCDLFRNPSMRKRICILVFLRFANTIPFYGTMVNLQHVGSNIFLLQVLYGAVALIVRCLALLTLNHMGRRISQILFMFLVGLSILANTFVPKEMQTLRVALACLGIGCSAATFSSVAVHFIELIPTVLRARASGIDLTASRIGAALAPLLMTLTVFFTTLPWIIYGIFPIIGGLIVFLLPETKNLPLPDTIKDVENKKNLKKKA

human SLC22A10 (541 aa) = target: T6, human SLC22A10 (541 aa) (Homo sapiens, UniProt Q63ZE4, P220L); test: radiolabelled uptake in transiently transfected HEK293 Flp-In cells; format: cell-based; conditions: labelled compound; HBSS
T6 construct: full length 541 aa, pcDNA3.1(+) or N-terminal eGFP fusion, transient HEK293 Flp-In cells
T6 sequence (Q63ZE4 1-541 P220L): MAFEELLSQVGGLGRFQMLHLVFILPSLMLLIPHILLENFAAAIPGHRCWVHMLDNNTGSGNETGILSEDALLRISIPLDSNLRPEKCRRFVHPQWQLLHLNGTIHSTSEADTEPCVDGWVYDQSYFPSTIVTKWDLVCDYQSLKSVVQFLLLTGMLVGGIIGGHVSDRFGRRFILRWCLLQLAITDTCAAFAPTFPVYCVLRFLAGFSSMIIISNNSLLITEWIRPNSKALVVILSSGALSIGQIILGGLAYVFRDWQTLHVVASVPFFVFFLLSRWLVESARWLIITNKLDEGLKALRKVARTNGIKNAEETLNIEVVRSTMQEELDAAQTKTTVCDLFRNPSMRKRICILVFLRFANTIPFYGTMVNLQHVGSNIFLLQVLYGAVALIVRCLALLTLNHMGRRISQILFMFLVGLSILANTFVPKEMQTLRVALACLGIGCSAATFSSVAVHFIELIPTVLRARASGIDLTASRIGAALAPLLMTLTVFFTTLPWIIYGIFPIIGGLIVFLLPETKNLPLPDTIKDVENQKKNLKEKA

[5] = substrate: C[C@]12CC[C@@H]3c4ccc(O)cc4CC[C@H]3[C@@H]1CC[C@@H]2O[C@@H]1O[C@H](C(=O)O)[C@@H](O)[C@H](O)[C@H]1O; test: radiolabelled uptake in stable HEK293 Flp-In cells, Michaelis-Menten fit; format: cell-based, Pan troglodytes; conditions: 37 °C, 5 min uptake, HBSS, empty-vector uptake subtracted, labelled compound

T1 sequence (G1QWU8 1-533): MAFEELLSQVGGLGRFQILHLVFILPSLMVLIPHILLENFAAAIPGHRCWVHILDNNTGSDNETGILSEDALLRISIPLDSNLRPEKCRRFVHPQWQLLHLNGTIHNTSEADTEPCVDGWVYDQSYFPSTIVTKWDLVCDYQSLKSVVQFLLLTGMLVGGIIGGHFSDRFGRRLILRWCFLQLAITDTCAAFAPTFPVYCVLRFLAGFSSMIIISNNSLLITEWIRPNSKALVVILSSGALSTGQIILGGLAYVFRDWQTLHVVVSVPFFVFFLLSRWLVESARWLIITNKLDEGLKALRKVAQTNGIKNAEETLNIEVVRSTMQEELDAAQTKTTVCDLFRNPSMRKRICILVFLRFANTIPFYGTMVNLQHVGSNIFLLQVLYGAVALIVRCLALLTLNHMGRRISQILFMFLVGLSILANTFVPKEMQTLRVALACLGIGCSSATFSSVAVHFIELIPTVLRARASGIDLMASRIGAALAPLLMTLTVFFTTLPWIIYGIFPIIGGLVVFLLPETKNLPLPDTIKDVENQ
T4 sequence (G3RG24 entry or part of it): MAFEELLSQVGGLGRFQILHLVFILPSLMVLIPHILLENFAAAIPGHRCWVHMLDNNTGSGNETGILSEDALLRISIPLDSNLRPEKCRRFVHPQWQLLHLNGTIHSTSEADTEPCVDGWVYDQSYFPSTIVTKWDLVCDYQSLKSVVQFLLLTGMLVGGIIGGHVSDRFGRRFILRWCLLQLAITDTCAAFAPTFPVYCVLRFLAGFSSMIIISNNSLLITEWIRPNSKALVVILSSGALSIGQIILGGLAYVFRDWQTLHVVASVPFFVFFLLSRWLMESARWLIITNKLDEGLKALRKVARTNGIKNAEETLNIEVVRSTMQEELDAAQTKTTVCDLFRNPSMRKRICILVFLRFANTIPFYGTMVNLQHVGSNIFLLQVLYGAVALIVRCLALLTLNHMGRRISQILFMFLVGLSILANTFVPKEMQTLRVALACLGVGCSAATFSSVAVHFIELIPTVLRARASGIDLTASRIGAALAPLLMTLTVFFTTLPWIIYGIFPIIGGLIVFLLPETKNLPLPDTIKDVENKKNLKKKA

Q: `Nc1nc2ncc(CNc3ccc(C(=O)N[C@@H](CCC(=O)O)C(=O)O)cc3)nc2c(=O)[nH]1` [folic acid] was tested. Which fold uptake (gibbon SLC22A10 (533 aa)) did it give?
A: from chimpanzee, orangutan and gibbon accumulated [^3H]-estradiol-17β-glucuronide and [^3H]-folic acid

Q: And the fold uptake [1]?
A: from chimpanzee, orangutan and gibbon accumulated [^3H]-estradiol-17β-glucuronide and [^3H]-folic acid

Q: For `C[C@]12CC[C@@H]3c4ccc(OS(=O)(=O)O)cc4CC[C@H]3[C@@H]1CCC2=O` [estrone sulfate], which uptake [2] is on record?
A: squirrel monkey, a New World monkey, preferred estrone sulfate over estradiol-17β- glucuronide

Q: Which results are given for `C[C@]12CC[C@@H]3c4ccc(O)cc4CC[C@H]3[C@@H]1CC[C@@H]2O[C@@H]1O[C@H](C(=O)O)[C@@H](O)[C@H](O)[C@H]1O` [estradiol-17β-glucuronide]?
A: fold uptake [3]: Significant accumulation of [^3H]-estradiol-17β-glucuronide and [^3H]-androstanediol-3α-glucuronide were observed in cells expressing; fold uptake (gibbon SLC22A10 (533 aa)): from chimpanzee, orangutan and gibbon accumulated [^3H]-estradiol-17β-glucuronide and [^3H]-folic acid; fold uptake [1]: from chimpanzee, orangutan and gibbon accumulated [^3H]-estradiol-17β-glucuronide and [^3H]-folic acid; Km [4]: 3.28 ± 2.25 µM; fold uptake (human SLC22A10 (541 aa)): resulting in substantial accumulation of the substrate, estradiol-17β-glucuronide

B1: chimpanzee SLC22A10 (552 aa) (Pan troglodytes) (protein)
chain: MAFEELLSQVGGLRRFQILHLVFILPSLMLLIPHILLENFAAAIPGHRCWVHMVDNNTGSGNETGILSEDALLRISIPLDSNLRPEKCRRFVHPQWQLLHLNGTIHSTSEADTEPCVDGWVYDQSYFPSTIVTKWDLVCDYQSLKSVVQFLLLTGMLVGGIIGGHVSDRFGRRFILRWCLLQLAITDTCAAFAPTFPVYCVLRFLAGFSSMIIISNNSLLITEWIRPNSKALVVILSSGALSIGQIILGGLAYVFRDWQTLHVVASVPFFVFFLLSRWLVESARWLIITNKLDEGLKALRKVARTNGIKNAEETLNIEVVRSTMQEELDAAQTKTTVCDLFRNPSMRKRICILVFLRFANTIPFYGTMVNLQHVGSNIFLLQVLYGAVALIVRCLALLTLNHMGRRISQILFMFLVGLSILANTFVPKEMQTLRVALACLGIGCSAATFSSVAVHFIELIPTVLRARASGIDLTASRIGAALAPLLMTLTVFFTTLPWIIYGIFPIIGGLIVFLLPETKNLPLPDTIKDVENQKKISRKRHKNDCYTKVTKF
Q: For B1, which Km [5] is on record?
A: 2.16 ± 0.59 µM
